Laboratory results published in US9247759B2, “Identification of human T2R receptors that respond to bitter compounds that elicit the bitter taste in compositions, and the use thereof in assays to identify compounds that inhibit (block) bitter taste in compositions and use thereof” (SENOMYX, INC., priority 2007, dated 2016).
Read-outs that look alike come from different tables or passages of the source.

Tests used:
hT2R65 = test: hT2R panel inhibition, transient HEK293 G16g44, agonist Oleuropein 1 mM; assay type: cell-based, human; conditions: compound at 25 μM; for screening result against bitter receptor 65: receptor activated to EC80 with the corresponding agonist
Procedure: (§1) Specifically, in order to evaluate the inhibitory selectivity of the Compound C compound, this compound was tested against 22 human T2Rs which were deorphaned by Senomyx. These receptors and the bitter ligands that activate these human T2Rs are reported in earlier patent applications which are incorporated by reference herein. These 22 human T2Rs are hT2R1, 3, 4, 5, 7, 8, 9, 10, 13, 14, 16, 44, 51, 54, 55, 61, 63, 64, 65, 67, 71 and 75. The amino acid and nucleic acid sequences of all of these T2Rs may be found in these earlier patent applications. These human T2Rs were each individually transiently transfected into HEK293 cells that stably express the promiscuous G protein G16g44 and functional assays were effected using these receptors as disclosed in these same patent applications. […] The ligands were used at EC80 concentration levels. The list of bitter ligands utilized and the tested ligand concentrations are contained in Table 5 of this example.
(§2) Relating to the foregoing, FIG. 5 contains experimental results wherein Compound C was tested with different agonist compounds. The inhibition activity is represented by the reduction of receptor activity in the presence of Compound C. […] These 13 hT2Rs are hT2R3, 7, 10, 14, 16, 44, 51, 55, 61, 63, 64, 65, and 71.

hT2R71 = hT2R71 (Homo sapiens (Human), UniProt P59536); test: hT2R panel inhibition, transient HEK293 G16g44, agonist Picric Acid 10 μM; assay type: cell-based; conditions: HEK293, compound at 25 μM
Procedure: as §1, §2

hT2R61 = hT2R61 (Homo sapiens (Human), UniProt P59537); test: hT2R panel inhibition, transient HEK293 G16g44, agonist Aristolochic Acid 25 nM; assay type: cell-based; conditions: HEK293, compound at 25 μM
Procedure: as §1, §2

hT2R16 = hT2R16 (Homo sapiens (Human), UniProt Q9NYV7); test: hT2R panel inhibition, transient HEK293 G16g44, agonist Salicin 1 mM; assay type: cell-based; conditions: HEK293, compound at 25 μM; receptor activated to EC80 with the corresponding agonist; read-out: screening result against bitter receptor 16
Procedure: as §1, §2

hT2R10 = hT2R10 (Homo sapiens (Human), UniProt Q9NYW0); test: hT2R panel inhibition, transient HEK293 G16g44, agonist Strychnine 50 μM; assay type: cell-based; conditions: HEK293, read-out: screening result against bitter receptor 10, compound at 25 μM; receptor activated to EC80 with the corresponding agonist
Procedure: as §1, §2

hT2R64 = hT2R64 (Homo sapiens (Human), UniProt P59538); test: hT2R panel inhibition, transient HEK293 G16g44, agonist Aristolochic Acid 1 μM; assay type: cell-based; conditions: HEK293, compound at 25 μM; receptor activated to EC80 with the corresponding agonist; read-out: screening result against bitter receptor 64
Procedure: as §1, §2

hT2R55 = test: hT2R panel inhibition, transient HEK293 G16g44, agonist Cinchonine 150 μM; assay type: cell-based, human; conditions: compound at 25 μM; for screening result against bitter receptor 55: receptor activated to EC80 with the corresponding agonist
Procedure: as §1, §2

hT2R63 = test: hT2R panel inhibition, transient HEK293 G16g44, agonist Caffeine 1 mM or Andrographolide 100 μM; assay type: cell-based, human; conditions: compound at 25 μM; for screening result against bitter receptor 63: receptor activated to EC80 with the corresponding agonist
Procedure: as §1, §2

hT2R54 = test: hT2R panel inhibition, transient HEK293 G16g44, agonist Ranitidine 5 mM; assay type: cell-based, human; conditions: compound at 25 μM; for screening result against bitter receptor 54: receptor activated to EC80 with the corresponding agonist
Procedure: as §1, §2

hT2R44 = test: hT2R panel inhibition, transient HEK293 G16g44, agonist Denatonium 0.5 μM; assay type: cell-based, human; conditions: compound at 25 μM; for screening result against bitter receptor 44: receptor activated to EC80 with the corresponding agonist
Procedure: as §1, §2

hT2R7 = hT2R7 (Homo sapiens (Human), UniProt Q9NYW3); test: hT2R panel inhibition, transient HEK293 G16g44, agonist Chloroquine pH6.5 10 mM; assay type: cell-based; conditions: HEK293, compound at 25 μM; receptor activated to EC80 with the corresponding agonist; read-out: screening result against bitter receptor 7
Procedure: as §1, §2

hT2R3 = hT2R3 (Homo sapiens (Human), UniProt Q9NYW6); test: hT2R panel inhibition, transient HEK293 G16g44, agonist Chloroquine pH6.5 50 μM; assay type: cell-based; conditions: HEK293, compound at 25 μM; receptor activated to EC80 with the corresponding agonist; read-out: screening result against bitter receptor 3
Procedure: as §1, §2

hT2R5 = hT2R5 (Homo sapiens (Human), UniProt Q9NYW4); test: hT2R panel inhibition, transient HEK293 G16g44, agonist Picoline 10 mM; assay type: cell-based; conditions: HEK293, compound at 25 μM; receptor activated to EC80 with the corresponding agonist; read-out: screening result against bitter receptor 5
Procedure: as §1, §2

hT2R14 [1] = molecular target: T1, hT2R14 (Homo sapiens (Human), UniProt Q9NYV8); test: hT2R panel inhibition, transient HEK293 G16g44, agonist Aristolochic Acid 2 μM; assay type: cell-based; conditions: HEK293, compound at 25 μM
Procedure: as §1

hT2R14 [2] = molecular target: T1, hT2R14; test: hT2R14 antagonist high-throughput FLIPR assay, stable cell line with G16g44, agonist aristolochic acid; assay type: cell-based
Method in brief: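 Compounds were co-applied with 3 μM aristolochic acid, a dose set to reach 70-80% of maximal hT2R14 activation. Read-out was FLIPR fluorescence in a stable HEK293 line co-expressing hT2R14 and G16g44.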

hT2R67 = test: hT2R panel inhibition, transient HEK293 G16g44, agonist Andrographolide 5 μM; assay type: cell-based, human; conditions: compound at 25 μM; receptor activated to EC80 with the corresponding agonist
Procedure: as §1, §2

[3] = receptor activated to EC80 with the corresponding agonist, read-out: screening result against bitter receptor 71
[4] = receptor activated to EC80 with the corresponding agonist, read-out: screening result against bitter receptor 61
[5] = receptor activated to EC80 with the corresponding agonist, read-out: screening result against bitter receptor 14
[6] = receptor activated to EC80 with agonist
[7] = receptor activated to EC80 with agonist, read-out: inhibition of bitter receptor 14

Chain of hT2R64 (P59538 whole entry): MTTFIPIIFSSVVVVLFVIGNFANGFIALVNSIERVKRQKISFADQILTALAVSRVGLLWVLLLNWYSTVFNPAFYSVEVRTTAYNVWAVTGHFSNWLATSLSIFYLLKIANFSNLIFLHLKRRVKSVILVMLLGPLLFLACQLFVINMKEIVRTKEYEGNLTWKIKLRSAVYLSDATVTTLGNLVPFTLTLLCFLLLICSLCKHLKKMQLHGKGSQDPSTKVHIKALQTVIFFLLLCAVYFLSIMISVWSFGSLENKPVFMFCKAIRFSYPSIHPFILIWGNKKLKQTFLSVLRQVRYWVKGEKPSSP
Chain of hT2R3 (Q9NYW6 whole entry): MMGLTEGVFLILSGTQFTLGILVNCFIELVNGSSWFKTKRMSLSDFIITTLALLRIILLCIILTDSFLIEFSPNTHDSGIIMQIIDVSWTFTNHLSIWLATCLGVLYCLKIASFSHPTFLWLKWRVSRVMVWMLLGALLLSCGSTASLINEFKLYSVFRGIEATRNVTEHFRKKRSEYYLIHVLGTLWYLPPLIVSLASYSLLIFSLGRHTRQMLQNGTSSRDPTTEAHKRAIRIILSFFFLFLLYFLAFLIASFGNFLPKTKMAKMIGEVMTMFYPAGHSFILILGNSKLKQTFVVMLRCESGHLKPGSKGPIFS
T1 sequence (Q9NYV8 whole entry): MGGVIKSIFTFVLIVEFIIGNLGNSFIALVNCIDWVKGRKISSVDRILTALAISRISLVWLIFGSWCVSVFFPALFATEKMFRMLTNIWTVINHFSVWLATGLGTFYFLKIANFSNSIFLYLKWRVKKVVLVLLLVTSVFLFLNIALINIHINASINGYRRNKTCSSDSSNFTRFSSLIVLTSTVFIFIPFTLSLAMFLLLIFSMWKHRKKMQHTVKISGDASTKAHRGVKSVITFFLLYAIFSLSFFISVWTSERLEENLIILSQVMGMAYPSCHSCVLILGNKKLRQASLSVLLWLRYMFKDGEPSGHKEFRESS
Chain of hT2R7 (Q9NYW3 whole entry): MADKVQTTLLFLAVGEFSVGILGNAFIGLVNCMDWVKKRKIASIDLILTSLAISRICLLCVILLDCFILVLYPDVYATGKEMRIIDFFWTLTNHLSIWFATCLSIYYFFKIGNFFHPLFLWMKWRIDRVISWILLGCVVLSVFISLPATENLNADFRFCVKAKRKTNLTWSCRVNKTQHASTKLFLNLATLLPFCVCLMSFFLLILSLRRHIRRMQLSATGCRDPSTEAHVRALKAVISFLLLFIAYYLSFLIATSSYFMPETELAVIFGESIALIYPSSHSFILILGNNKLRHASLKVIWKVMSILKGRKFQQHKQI
Chain of hT2R16 (Q9NYV7 whole entry): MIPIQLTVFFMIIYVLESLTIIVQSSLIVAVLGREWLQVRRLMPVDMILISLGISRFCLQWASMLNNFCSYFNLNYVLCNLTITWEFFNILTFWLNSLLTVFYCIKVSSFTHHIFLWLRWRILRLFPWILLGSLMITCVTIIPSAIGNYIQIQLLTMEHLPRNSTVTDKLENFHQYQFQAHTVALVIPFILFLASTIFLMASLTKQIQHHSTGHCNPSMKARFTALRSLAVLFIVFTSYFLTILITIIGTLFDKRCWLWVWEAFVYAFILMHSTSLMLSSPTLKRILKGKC
Chain of hT2R71 (P59536 whole entry): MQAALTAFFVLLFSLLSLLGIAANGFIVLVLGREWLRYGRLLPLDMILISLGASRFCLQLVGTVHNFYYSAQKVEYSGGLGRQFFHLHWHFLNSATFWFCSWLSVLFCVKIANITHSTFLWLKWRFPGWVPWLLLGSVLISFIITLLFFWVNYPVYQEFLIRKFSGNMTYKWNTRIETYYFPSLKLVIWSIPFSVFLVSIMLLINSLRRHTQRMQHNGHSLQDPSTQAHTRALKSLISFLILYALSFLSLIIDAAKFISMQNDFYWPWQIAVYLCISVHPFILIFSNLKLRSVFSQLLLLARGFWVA
Chain of hT2R5 (Q9NYW4 whole entry): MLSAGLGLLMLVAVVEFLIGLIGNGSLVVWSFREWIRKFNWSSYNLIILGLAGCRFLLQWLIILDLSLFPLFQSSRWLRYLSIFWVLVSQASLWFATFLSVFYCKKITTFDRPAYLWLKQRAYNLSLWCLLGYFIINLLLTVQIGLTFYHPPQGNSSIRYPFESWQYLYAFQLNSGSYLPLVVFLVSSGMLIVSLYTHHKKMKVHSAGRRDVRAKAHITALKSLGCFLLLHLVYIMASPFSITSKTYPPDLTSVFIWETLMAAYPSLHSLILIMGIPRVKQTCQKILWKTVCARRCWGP
Chain of hT2R61 (P59537 whole entry): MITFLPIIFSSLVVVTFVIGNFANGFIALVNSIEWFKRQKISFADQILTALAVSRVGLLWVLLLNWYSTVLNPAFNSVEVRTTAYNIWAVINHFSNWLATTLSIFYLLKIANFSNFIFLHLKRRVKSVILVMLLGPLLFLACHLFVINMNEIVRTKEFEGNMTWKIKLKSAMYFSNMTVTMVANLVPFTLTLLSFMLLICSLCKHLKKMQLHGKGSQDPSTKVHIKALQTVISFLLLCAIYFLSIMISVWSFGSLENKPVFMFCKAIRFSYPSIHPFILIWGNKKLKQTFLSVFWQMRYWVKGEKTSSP
Chain of hT2R10 (Q9NYW0 whole entry): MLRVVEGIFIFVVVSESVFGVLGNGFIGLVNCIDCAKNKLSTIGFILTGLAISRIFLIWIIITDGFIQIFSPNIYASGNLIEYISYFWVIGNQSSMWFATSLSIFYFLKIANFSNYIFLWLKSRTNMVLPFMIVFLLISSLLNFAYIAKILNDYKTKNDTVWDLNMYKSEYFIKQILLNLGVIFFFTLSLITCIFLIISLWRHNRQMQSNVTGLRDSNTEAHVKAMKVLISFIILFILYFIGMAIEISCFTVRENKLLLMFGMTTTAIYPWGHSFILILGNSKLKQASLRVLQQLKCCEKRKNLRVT

Row | SMILES | screening result against bitter receptor 65 (hT2R65) | inhibition at 25 µM (hT2R71; [3]) | inhibition at 25 µM (hT2R61; [4]) | inhibition at 25 µM (hT2R16) | inhibition at 25 µM (hT2R64) | screening result against bitter receptor 55 (hT2R55) | screening result against bitter receptor 63 (hT2R63) | screening result against bitter receptor 44 (hT2R44) | inhibition at 25 µM (hT2R7) | inhibition at 25 µM (hT2R3) | inhibition at 25 µM (hT2R14 [1]; [5]) | screening result against bitter receptor 67 (hT2R67) | other results
1 | COc1ccc(CN(c2ccccc2)S(=O)(=O)c2ccc(C(=O)O)cc2)cc1 [Example 5-18, 4-(N-(4-methoxybenzyl)-N-phenylsulfamoyl)benzoic acid] | + (20% to 40% inhibition = +) | 40 to 60% | 60 to 80% | 40 to 60% | > 80% | ++++ (80% or greater inhibition = ++++) | +++ (60% to 80% inhibition = +++) | +++ (60% to 80% inhibition = +++) |  |  |  |  | inhibition at 25 µM (hT2R10): > 80%; screening result against bitter receptor 54 (hT2R54): ++ (40% to 60% inhibition = ++)
2 | COc1ccc(N(Cc2ccccc2)S(=O)(=O)c2ccc(C(=O)O)cc2)cc1 [Example 5-35, 4-(N-benzyl-N-(4-methoxyphenyl)sulfamoyl)benzoic acid] |  | 40 to 60% | > 80% | 20 to 40% | 20 to 40% | +++ (60% to 80% inhibition = +++) | +++ (60% to 80% inhibition = +++) | + (20% to 40% inhibition = +) | 20 to 40% | 20 to 40% | 20 to 40% |  | screening result against bitter receptor 54 (hT2R54): + (20% to 40% inhibition = +); inhibition at 25 µM (hT2R5): 20 to 40%
3 | COc1ccc(CN(Cc2ccccc2)S(=O)(=O)c2ccc(-c3nn[nH]n3)cc2)cc1 [Example 5-46, N-benzyl-N-(4-methoxybenzyl)-4-(1H-tetrazol-5-yl)benzene-sulfonamide] | ++ (40% to 60% inhibition = ++) | 60 to 80% | > 80% | 20 to 40% |  | + (20% to 40% inhibition = +) | +++ (60% to 80% inhibition = +++) | ++ (40% to 60% inhibition = ++) | 20 to 40% | 20 to 40% | > 80% | ++ (40% to 60% inhibition = ++) | IC50 (hT2R14 [2]; read-out: IC50 on hT2R14 bitter receptor): 3.67 µM
4 | O=C(O)c1ccc(S(=O)(=O)NCc2ccco2)cc1 [Example 5-54, 4-(N-(furan-2-ylmethyl)sulfamoyl)benzoic acid] |  |  |  |  |  |  |  |  |  | 20 to 40% |  | + (20% to 40% inhibition = +) | 
5 | COc1ccc(CN(Cc2ccc(C)o2)S(=O)(=O)c2ccc(C(=O)O)cc2)cc1 [Example 5-63, 4-(N-(4-methoxybenzyl)-N-((5-methylfuran-2-yl)methyl)sulfamoyl)benzoic acid] |  | 20 to 40% |  |  | 40 to 60% | +++ (60% to 80% inhibition = +++) | +++ (60% to 80% inhibition = +++) |  |  | 20 to 40% |  | + (20% to 40% inhibition = +) | inhibition at 25 µM (hT2R5): 20 to 40%
6 | COc1ccc(CN(Cc2ccccn2)S(=O)(=O)c2ccc(C(=O)O)cc2)cc1 [Example 5-87, 4-(N-(4-methoxybenzyl)-N-(pyridin-2-ylmethyl)sulfamoyl)benzoic acid] |  |  | 40 to 60% |  | 20 to 40% |  | + (20% to 40% inhibition = +) |  |  |  |  | + (20% to 40% inhibition = +) | 
7 | COc1ccc(CN(Cc2cccnc2)S(=O)(=O)c2ccc(C(=O)O)cc2)cc1 [Example 5-88, 4-(N-(4-methoxybenzyl)-N-(pyridin-3-ylmethyl)sulfamoyl)benzoic acid] |  | 20 to 40% | 40 to 60% |  | 20 to 40% |  | +++ (60% to 80% inhibition = +++) | + (20% to 40% inhibition = +) |  | 20 to 40% | 20 to 40% | + (20% to 40% inhibition = +) | 
8 | COc1ccc(CN(Cc2ccccc2)S(=O)(=O)c2ccc(C(=O)O)cc2)cn1 [Example 5-90, 4-(N-benzyl-N-((6-methoxypyridin-3-yl)methyl)sulfamoyl)benzoic acid] | ++ (40% to 60% inhibition = ++) | 60 to 80% | > 80% | 20 to 40% | 60 to 80% | +++ (60% to 80% inhibition = +++) | ++++ (80% or greater inhibition = ++++) | +++ (60% to 80% inhibition = +++) | 60 to 80% | 40 to 60% | > 80% |  | inhibition at 25 µM (hT2R10): 40 to 60%; inhibition at 25 µM (hT2R5): 20 to 40%
9 | O=C(O)c1ccc(S(=O)(=O)N(Cc2ccccc2)Cc2ccc(O)cc2)cc1 [Example 5-99, 4-(N-benzyl-N-(4-hydroxybenzyl)sulfamoyl)benzoic acid] | ++ (40% to 60% inhibition = ++) | 60 to 80% | > 80% | 20 to 40% | 60 to 80% | + (20% to 40% inhibition = +) | ++++ (80% or greater inhibition = ++++) | +++ (60% to 80% inhibition = +++) | 20 to 40% |  | > 80% | ++ (40% to 60% inhibition = ++) | IC50 (hT2R14 [2]; Table C, read-out: hT2R14 IC50): 5.21 µM
10 | Cn1c(=O)c2cc(S(=O)(=O)Nc3ccc4c(c3)OCO4)ccc2n(C)c1=O [Example 6-5, N-(benzo[d][1,3]dioxol-5-yl)-1,3-dimethyl-2,4-dioxo-1,2,3,4-tetrahydroquinazoline-6-sulfonamide] |  |  |  |  |  |  |  |  |  |  |  |  | inhibition of bitter receptor 65 (hT2R65; [6]): ++ (40% to 60% inhibition = ++); inhibition at 25 µM (hT2R71; receptor activated to EC80 with agonist, read-out: inhibition of bitter receptor 71): 60 to 80%; IC50 (hT2R14 [2]; Table D, read-out: hT2R14 IC50): 0.264 µM; inhibition at 25 µM (hT2R61; receptor activated to EC80 with agonist, read-out: inhibition of bitter receptor 61): 20 to 40%; inhibition of bitter receptor 63 (hT2R63; [6]): ++++ (80% or greater inhibition = ++++); inhibition of bitter receptor 44 (hT2R44; [6]): ++ (40% to 60% inhibition = ++); inhibition at 25 µM (hT2R14 [1]; [7]): > 80%
11 | Cn1c(=O)c2cc(S(=O)(=O)Nc3ccc4c(c3)OCCO4)ccc2n(C)c1=O [Example 6-6, N-(2,3-dihydrobenzo[b][1,4]dioxin-6-yl)-1,3-dimethyl-2,4-dioxo-1,2,3,4-tetrahydroquinazoline-6-sulfonamide] |  |  |  |  |  |  |  |  |  |  |  |  | IC50 (hT2R14 [2]; Table D, read-out: hT2R14 IC50): 0.706 µM; screening result against bitter receptor 55, printed as a number (meaning not defined) (hT2R55; receptor activated to EC80 with agonist, numeric cell): 210; inhibition of bitter receptor 54 (hT2R54; [6]): + (20% to 40% inhibition = +); inhibition at 25 µM (hT2R14 [1]; [7]): > 80%
